{
  "source": "PubChem BioAssay AID256",
  "about": "(DTP/NCI, 2004)",
  "test_system": "CD2F1 mice, L1210 leukemia ip, survival T/C",
  "assay": "NCI In Vivo Anticancer Drug Screen. Data for tumor model L1210 Leukemia (intraperitoneal) in CD2F1 (CDF1) mice",
  "details": "higher = longer survival",
  "method_in_brief": "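Implant tumor; dose compound or vehicle; measure endpoint in both groups; report treated divided by control.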",
  "note": "Several values for one entry are separate records, joined by “and”; a condition that tells them apart may be missing. Equal entries are not always repeated. Inconclusive results and toxic doses are left out.",
  "data": [
    {"compound": "Cc1cc(NCCCCCCNc2cc(C)nc3ccc(N)cc23)c2cc(N)ccc2n1", "values": [
      {"measurement": "T/C", "setting": "endpoint: mean survival time, dose: 6.25 mg/kg/injection, schedule: Q01DX009 (ip), vehicle: water", "result": "122 % of control"},
      {"measurement": "T/C", "setting": "endpoint: mean survival time, dose: 6.4 mg/kg/injection, schedule: Q08HX009 (ip), vehicle: water", "result": "121 % of control"},
      {"measurement": "T/C", "setting": "endpoint: mean survival time, dose: 7.2 mg/kg/injection, schedule: Q01DX009 (ip), vehicle: saline with Tween-80", "result": "115 % of control"},
      {"measurement": "T/C", "setting": "endpoint: mean survival time, dose: 7.4 mg/kg/injection, schedule: Q01DX009 (ip), vehicle: saline with Tween-80", "result": "120 % of control"},
      {"measurement": "T/C", "setting": "endpoint: mean survival time, dose: 7.6 mg/kg/injection, schedule: Q08HX006 (iv), vehicle: saline with Tween-80", "result": "101 % of control"},
      {"measurement": "T/C", "setting": "endpoint: mean survival time, dose: 7.6 mg/kg/injection, schedule: Q08HX009 (iv), vehicle: saline with Tween-80", "result": "89 % of control"},
      {"measurement": "T/C", "setting": "endpoint: mean survival time, dose: 8.2 mg/kg/injection, schedule: Q01DX009 (sc), vehicle: saline with Tween-80", "result": "98 % of control"},
      {"measurement": "T/C", "setting": "endpoint: mean survival time, dose: 9.0 mg/kg/injection, schedule: Q01DX009 (ip), vehicle: saline", "result": "121 % of control"},
      {"measurement": "T/C", "setting": "endpoint: mean survival time, dose: 9.4 mg/kg/injection, schedule: Q01DX009 (ip), vehicle: water", "result": "118 % of control"},
      {"measurement": "T/C", "setting": "endpoint: mean survival time, dose: 10.9 mg/kg/injection, schedule: Q01DX009 (sc), vehicle: saline with Tween-80", "result": "98 % of control"},
      {"measurement": "T/C", "setting": "endpoint: mean survival time, dose: 12.8 mg/kg/injection, schedule: Q01DX009 (ip), vehicle: saline with Tween-80", "result": "115 % of control"},
      {"measurement": "T/C", "setting": "endpoint: mean survival time, dose: 14.5 mg/kg/injection, schedule: Q01DX009 (ip), vehicle: saline with Tween-80", "result": "156 % of control"},
      {"measurement": "T/C", "setting": "endpoint: mean survival time, dose: 15.3 mg/kg/injection, schedule: Q08HX009 (iv), vehicle: saline with Tween-80", "result": "89 % of control"},
      {"measurement": "T/C", "setting": "endpoint: mean survival time, dose: 19.0 mg/kg/injection, schedule: Q01DX009 (sc), vehicle: water", "result": "113 % of control"},
      {"measurement": "T/C", "setting": "endpoint: mean survival time, dose: 19.4 mg/kg/injection, schedule: Q01DX005 (iv), vehicle: saline with Tween-80", "result": "118 % of control and 119 % of control"},
      {"measurement": "T/C", "setting": "endpoint: mean survival time, dose: 19.4 mg/kg/injection, schedule: Q01DX009 (ip), vehicle: saline with Tween-80", "result": "165 % of control"},
      {"measurement": "T/C", "setting": "endpoint: mean survival time, dose: 19.4 mg/kg/injection, schedule: Q01DX009 (sc), vehicle: saline with Tween-80", "result": "115 % of control"},
      {"measurement": "T/C", "setting": "endpoint: mean survival time, dose: 19.6 mg/kg/injection, schedule: Q08HX009 (ip), vehicle: saline with Tween-80", "result": "151 % of control"},
      {"measurement": "T/C", "setting": "endpoint: mean survival time, dose: 22.7 mg/kg/injection, schedule: Q01DX009 (ip), vehicle: saline with Tween-80", "result": "118 % of control"},
      {"measurement": "T/C", "setting": "endpoint: mean survival time, dose: 25.0 mg/kg/injection, schedule: Q01DX009 (ip), vehicle: water", "result": "109 % of control"},
      {"measurement": "T/C", "setting": "endpoint: mean survival time, dose: 25.3 mg/kg/injection, schedule: Q01DX009 (ip), vehicle: water", "result": "160 % of control"},
      {"measurement": "T/C", "setting": "endpoint: mean survival time, dose: 25.3 mg/kg/injection, schedule: Q01DX009 (sc), vehicle: water", "result": "115 % of control"},
      {"measurement": "T/C", "setting": "endpoint: mean survival time, dose: 25.8 mg/kg/injection, schedule: Q01DX005 (iv), vehicle: saline with Tween-80", "result": "117 % of control and 120 % of control"},
      {"measurement": "T/C", "setting": "endpoint: mean survival time, dose: 25.8 mg/kg/injection, schedule: Q01DX009 (ip), vehicle: saline with Tween-80", "result": "166 % of control"},
      {"measurement": "T/C", "setting": "endpoint: mean survival time, dose: 25.8 mg/kg/injection, schedule: Q01DX009 (sc), vehicle: saline with Tween-80", "result": "123 % of control"},
      {"measurement": "T/C", "setting": "endpoint: mean survival time, dose: 29.4 mg/kg/injection, schedule: Q01DX009 (ip), vehicle: saline with Tween-80", "result": "171 % of control"},
      {"measurement": "T/C", "setting": "endpoint: mean survival time, dose: 30.6 mg/kg/injection, schedule: Q08HX009 (iv), vehicle: saline with Tween-80", "result": "95 % of control"},
      {"measurement": "T/C", "setting": "endpoint: mean survival time, dose: 33.8 mg/kg/injection, schedule: Q01DX009 (sc), vehicle: water", "result": "124 % of control"},
      {"measurement": "T/C", "setting": "endpoint: mean survival time, dose: 34.4 mg/kg/injection, schedule: Q01DX005 (iv), vehicle: saline with Tween-80", "result": "116 % of control and 123 % of control"},
      {"measurement": "T/C", "setting": "endpoint: mean survival time, dose: 34.4 mg/kg/injection, schedule: Q01DX009 (ip), vehicle: saline with Tween-80", "result": "167 % of control"},
      {"measurement": "T/C", "setting": "endpoint: mean survival time, dose: 34.4 mg/kg/injection, schedule: Q01DX009 (sc), vehicle: saline with Tween-80", "result": "124 % of control"},
      {"measurement": "T/C", "setting": "endpoint: mean survival time, dose: 39.2 mg/kg/injection, schedule: Q08HX009 (ip), vehicle: saline with Tween-80", "result": "165 % of control"},
      {"measurement": "T/C", "setting": "endpoint: mean survival time, dose: 40.4 mg/kg/injection, schedule: Q01DX009 (ip), vehicle: saline with Tween-80", "result": "123 % of control"},
      {"measurement": "T/C", "setting": "endpoint: mean survival time, dose: 45.9 mg/kg/injection, schedule: Q01DX009 (ip), vehicle: saline with Tween-80", "result": "171 % of control"},
      {"measurement": "T/C", "setting": "endpoint: mean survival time, dose: 58.8 mg/kg/injection, schedule: Q01DX009 (ip), vehicle: saline with Tween-80", "result": "185 % of control"},
      {"measurement": "T/C", "setting": "endpoint: mean survival time, dose: 71.8 mg/kg/injection, schedule: Q01DX009 (ip), vehicle: saline with Tween-80", "result": "157 % of control"},
      {"measurement": "T/C", "setting": "endpoint: mean survival time, dose: 78.4 mg/kg/injection, schedule: Q08HX009 (ip), vehicle: saline with Tween-80", "result": "180 % of control"},
      {"measurement": "T/C", "setting": "endpoint: mean survival time, dose: 117.6 mg/kg/injection, schedule: Q01DX009 (ip), vehicle: saline with Tween-80", "result": "98 % of control"},
      {"measurement": "T/C", "setting": "endpoint: mean survival time, dose: 127.8 mg/kg/injection, schedule: Q01DX009 (ip), vehicle: saline with Tween-80", "result": "151 % of control"},
      {"measurement": "T/C", "setting": "endpoint: mean survival time, dose: 150.0 mg/kg/injection, schedule: Q01DX009 (ip), vehicle: saline with Tween-80", "result": "168 % of control and 174 % of control"},
      {"measurement": "T/C", "setting": "endpoint: mean survival time, dose: 300.0 mg/kg/injection, schedule: Q01DX009 (ip), vehicle: saline with Tween-80", "result": "120 % of control"},
      {"measurement": "T/C", "setting": "endpoint: median survival time, dose: 0.78 mg/kg/injection, schedule: Q01DX009 (ip), vehicle: water", "result": "98 % of control"},
      {"measurement": "T/C", "setting": "endpoint: median survival time, dose: 1.56 mg/kg/injection, schedule: Q01DX009 (ip), vehicle: water", "result": "93 % of control"},
      {"measurement": "T/C", "setting": "endpoint: median survival time, dose: 3.12 mg/kg/injection, schedule: Q01DX009 (ip), vehicle: water", "result": "98 % of control"},
      {"measurement": "T/C", "setting": "endpoint: median survival time, dose: 6.25 mg/kg/injection, schedule: Q01DX009 (ip), vehicle: water", "result": "109 % of control"},
      {"measurement": "T/C", "setting": "endpoint: median survival time, dose: 12.5 mg/kg/injection, schedule: Q01DX009 (ip), vehicle: water", "result": "117 % of control"}
    ]}
  ]
}
